According to US20250042875A1, “PESTICIDALLY ACTIVE PYRIDAZINONE COMPOUNDS” (SYNGENTA CROP PROTECTION AG, priority 2021, published 2025):

How the values were obtained:
Type in all cases: in vivo
Chilo suppressalis = test: Activity against Chilo suppressalis (striped rice stemborer), artificial diet, L2 larvae; conditions: 144 h, application rate 200 ppm, 6 days after infestation, read-out: control in at least one of the three categories (mortality, anti-feedant effect, or growth inhibition)
How it was run: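 Artificial diet was treated with aqueous test solutions made from 10′000 ppm DMSO stocks, dried, then infested with 6-8 L2 larvae per well. Mortality, anti-feeding effect and growth inhibition were scored versus untreated samples 6 days after infestation; control means any category exceeds untreated.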

Diabrotica balteata = test: Activity against Diabrotica balteata (corn root worm), maize sprouts, L2 larvae; conditions: 96 h, application rate 200 ppm, 4 days after infestation, read-out: control in at least one of the two categories (mortality or growth inhibition)
Experimental: Example B2: Activity Against Diabrotica Balteata (Corn Root Worm)
Maize sprouts placed onto an agar layer in 24-well microtiter plates were treated with aqueous test solutions prepared from 10′000 ppm DMSO stock solutions by spraying. After drying, the plates were infested with L2 larvae (6 to 10 per well). The samples were assessed for mortality and growth inhibition in comparison to untreated samples 4 days after infestation.

Euschistus heros = test: Activity against Euschistus heros (neotropical brown stink bug), soybean leaves, N2 nymphs; conditions: 120 h, application rate 200 ppm, 5 days after infestation, read-out: effect in at least one of the two categories (mortality or growth inhibition)
Experimental: Example B3: Activity Against Euschistus heros (Neotropical Brown Stink Bug)
Soybean leaves on agar in 24-well microtiter plates were sprayed with aqueous test solutions prepared from 10′000 ppm DMSO stock solutions. After drying the leaves were infested with N2 nymphs. The samples were assessed for mortality and growth inhibition in comparison to untreated samples 5 days after infestation.

Myzus persicae [1] = test: Activity against Myzus persicae (green peach aphid), feeding/contact activity; conditions: 144 h, application rate 200 ppm, 6 days after infestation
Experimental: Example B5: Activity Against Myzus persicae (Green Peach Aphid). Feeding/Contact Activity
Sunflower leaf discs were placed onto agar in a 24-well microtiter plate and sprayed with aqueous test solutions prepared from 10′000 ppm DMSO stock solutions. After drying, the leaf discs were infested with an aphid population of mixed ages. The samples were assessed for mortality 6 days after infestation.

Myzus persicae [2] = test: Activity against Myzus persicae (green peach aphid), intrinsic activity; conditions: 120 h, test rate 12 ppm, 5 days after infestation
How it was run: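 Compounds diluted from 10′000 ppm DMSO stocks were mixed with sucrose solution under a stretched Parafilm membrane. Aphid-infested pea seedlings were set on the membrane and the plate was inverted so the aphids fed through it. Mortality was scored 5 days after infestation.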

Plutella xylostella = test: Activity against Plutella xylostella (diamond back moth), artificial diet, eggs; conditions: 192 h, application rate 200 ppm, 8 days after infestation, read-out: control in at least one of the two categories (mortality or growth inhibition)
How it was run: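 Artificial diet was treated with aqueous dilutions of 10′000 ppm DMSO stocks, dried, then infested with Plutella eggs. Mortality and growth inhibition versus untreated samples were scored 8 days after infestation.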

Spodoptera littoralis = test: Activity against Spodoptera littoralis (Egyptian cotton leaf worm), cotton leaf discs, L1 larvae; conditions: foliar, 72 h, application rate 200 ppm, 3 days after infestation, read-out: control in at least one of the three categories (mortality, anti-feedant effect, or growth inhibition)
How it was run: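 Cotton leaf discs on agar sprayed with aqueous test solutions made from 10′000 ppm DMSO stocks, then infested with five L1 larvae once dry. Mortality, anti-feeding and growth inhibition scored versus untreated samples 3 days after infestation; control counted when any category exceeds untreated.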

[3] = system: Frankliniella occidentalis; test: Activity against Frankliniella occidentalis (western flower thrips), feeding/contact activity; conditions: 168 h, application rate 200 ppm, 7 days after infestation
Experimental: Example B4: Activity Against Frankliniella occidentalis (Western Flower Thrips). Feeding/Contact Activity
Sunflower leaf discs were placed on agar in 24-well microtiter plates and sprayed with aqueous test solutions prepared from […] stock solutions. After drying the leaf discs were infested with a Frankliniella population of mixed ages. The samples were assessed for mortality 7 days after infestation.

CCn1nc(-n2ncnc2[C@H](C)NC(=O)c2cc(Cl)cc(C(F)(F)F)c2)ccc1=O [P16, 3-chloro-N-[(1S)-1-[2-(1-ethyl-6-oxo-pyridazin-3-yl)-1,2,4-triazol-3-yl]ethy]-5-(trifluoromethyl)benzamide]
≥ 80%: percent control (mortality, anti-feedant effect or growth inhibition) at 200 ppm (Chilo suppressalis) | percent control (mortality or growth inhibition) at 200 ppm (Diabrotica balteata) | percent effect (mortality or growth inhibition) at 200 ppm (Euschistus heros) | mortality at 200 ppm (Myzus persicae [1]) | mortality at 12 ppm (Myzus persicae [2]) | percent control (mortality or growth inhibition) at 200 ppm (Plutella xylostella) | percent control (mortality, anti-feedant effect or growth inhibition) at 200 ppm (Spodoptera littoralis)

C[C@H](NC(=O)c1cc(C(F)(F)F)cc(C(F)(F)F)c1)c1ncnn1-c1ccc(=O)n(C)n1 [P1, N-[(1S)-1-[2-(1-methyl-6-oxo-pyridazin-3-yl)-1,2,4-triazol-3-yl]ethyl]-3,5-bis(trifluoromethyl)benzamide]
≥ 80%: percent control (mortality, anti-feedant effect or growth inhibition) at 200 ppm (Chilo suppressalis) | percent control (mortality or growth inhibition) at 200 ppm (Diabrotica balteata) | percent effect (mortality or growth inhibition) at 200 ppm (Euschistus heros) | mortality at 200 ppm (Myzus persicae [1]) | mortality at 12 ppm (Myzus persicae [2]) | percent control (mortality or growth inhibition) at 200 ppm (Plutella xylostella) | percent control (mortality, anti-feedant effect or growth inhibition) at 200 ppm (Spodoptera littoralis)

CC(NC(=O)c1cc(Cl)cc(OC(F)(F)F)c1)c1nccnc1-c1ccc(=O)n(C)n1 (stereo not shown) [P11, 3-chloro-N-[1-[3-(1-methyl-6-oxopyridazin-3-yl)pyrazin-2-yl]ethyl]-5-(trifluoromethoxy) benzamide]
≥ 80%: percent control (mortality, anti-feedant effect or growth inhibition) at 200 ppm (Chilo suppressalis) | percent control (mortality or growth inhibition) at 200 ppm (Diabrotica balteata) | percent effect (mortality or growth inhibition) at 200 ppm (Euschistus heros) | mortality at 200 ppm (Myzus persicae [1]) | mortality at 12 ppm (Myzus persicae [2]) | percent control (mortality or growth inhibition) at 200 ppm (Plutella xylostella) | percent control (mortality, anti-feedant effect or growth inhibition) at 200 ppm (Spodoptera littoralis)

C[C@H](NC(=O)c1cc(C(F)(F)F)nc(C2(C#N)CC2)c1)c1ncnn1-c1ccc(=O)n(C)n1 [P33, 2-(1-cyanocyclopropyl)-N-[(1S)-1-[2-(1-methyl-6-oxo-pyridazin-3-yl)-1,2,4-triazol-3-yl]ethyl]-6-(trifluoromethyl)pyridine-4-carboxamide]
≥ 80%: percent control (mortality, anti-feedant effect or growth inhibition) at 200 ppm (Chilo suppressalis) | percent control (mortality or growth inhibition) at 200 ppm (Diabrotica balteata) | percent effect (mortality or growth inhibition) at 200 ppm (Euschistus heros) | mortality at 200 ppm (Myzus persicae [1]) | mortality at 12 ppm (Myzus persicae [2]) | percent control (mortality or growth inhibition) at 200 ppm (Plutella xylostella) | percent control (mortality, anti-feedant effect or growth inhibition) at 200 ppm (Spodoptera littoralis)

C[C@H](NC(=O)c1cc(C(F)(F)F)cc(S(=O)(=O)C(F)(F)F)c1)c1ncnn1-c1ccc(=O)n(C)n1 [P8, N-[(1S)-1-[2-(1-methyl-6-oxo-pyridazin-3-yl)-1,2,4-triazol-3-yl]ethyl]-3-(trifluoromethyl)-5-(trifluoromethylsulfonyl) benzamide]
≥ 80%: percent control (mortality, anti-feedant effect or growth inhibition) at 200 ppm (Chilo suppressalis) | percent control (mortality or growth inhibition) at 200 ppm (Diabrotica balteata) | percent effect (mortality or growth inhibition) at 200 ppm (Euschistus heros) | mortality at 200 ppm (Myzus persicae [1]) | mortality at 12 ppm (Myzus persicae [2]) | percent control (mortality or growth inhibition) at 200 ppm (Plutella xylostella) | percent control (mortality, anti-feedant effect or growth inhibition) at 200 ppm (Spodoptera littoralis)

C[C@@H](c1ncnn1C1=NN(C)C(=O)CC1)N(C)C(=O)c1cc(Cl)cc(C(F)(F)F)c1 [P23, 3-chloro-N-methyl-N-[(1S)-1-[2-(1-methyl-6-oxo-4,5-dihydropyridazin-3-yl)-1,2,4-triazol-3-yl]ethyl]-5-(trifluoromethyl)benzamide]
≥ 80%: percent control (mortality, anti-feedant effect or growth inhibition) at 200 ppm (Chilo suppressalis) | percent control (mortality or growth inhibition) at 200 ppm (Diabrotica balteata) | percent effect (mortality or growth inhibition) at 200 ppm (Euschistus heros) | mortality at 200 ppm (Myzus persicae [1]) | mortality at 12 ppm (Myzus persicae [2]) | percent control (mortality or growth inhibition) at 200 ppm (Plutella xylostella) | percent control (mortality, anti-feedant effect or growth inhibition) at 200 ppm (Spodoptera littoralis)

C[C@H](NC(=O)c1cc(Br)cc(Br)c1)c1ncnn1-c1ccc(=O)n(C)n1 [P29, 3,5-dibromo-N-[(1S)-1-[2-(1-methyl-6-oxo-pyridazin-3-yl)-1,2,4-triazol-3-yl]ethyl]benzamide]
≥ 80%: percent control (mortality, anti-feedant effect or growth inhibition) at 200 ppm (Chilo suppressalis) | percent control (mortality or growth inhibition) at 200 ppm (Diabrotica balteata) | percent effect (mortality or growth inhibition) at 200 ppm (Euschistus heros) | mortality at 200 ppm (Myzus persicae [1]) | mortality at 12 ppm (Myzus persicae [2]) | percent control (mortality or growth inhibition) at 200 ppm (Plutella xylostella) | percent control (mortality, anti-feedant effect or growth inhibition) at 200 ppm (Spodoptera littoralis)

C[C@H](NC(=O)c1cc(Cl)cc(OC(F)(F)F)c1)c1ncnn1-c1ccc(=O)n(C)n1 [P26, 3-chloro-N-[(1S)-1-[2-(1-methyl-6-oxo-pyridazin-3-yl)-1,2,4-triazol-3-yl]ethyl]-5-(trifluoromethoxy)benzamide]
≥ 80%: percent control (mortality, anti-feedant effect or growth inhibition) at 200 ppm (Chilo suppressalis) | percent control (mortality or growth inhibition) at 200 ppm (Diabrotica balteata) | percent effect (mortality or growth inhibition) at 200 ppm (Euschistus heros) | mortality at 200 ppm (Myzus persicae [1]) | mortality at 12 ppm (Myzus persicae [2]) | percent control (mortality or growth inhibition) at 200 ppm (Plutella xylostella) | percent control (mortality, anti-feedant effect or growth inhibition) at 200 ppm (Spodoptera littoralis)

C[C@H](NC(=O)c1cc(Cl)cc(S(=O)(=O)C(F)(F)F)c1)c1ncnn1-c1ccc(=O)n(C)n1 [P20, 3-chloro-N-[(1S)-1-[2-(1-methyl-6-oxo-pyridazin-3-yl)-1,2,4-triazol-3-yl]ethyl]-5-(trifluoromethylsulfonyl) benzamide]
≥ 80%: percent control (mortality, anti-feedant effect or growth inhibition) at 200 ppm (Chilo suppressalis) | percent control (mortality or growth inhibition) at 200 ppm (Diabrotica balteata) | percent effect (mortality or growth inhibition) at 200 ppm (Euschistus heros) | mortality at 200 ppm (Myzus persicae [1]) | mortality at 12 ppm (Myzus persicae [2]) | percent control (mortality or growth inhibition) at 200 ppm (Plutella xylostella) | percent control (mortality, anti-feedant effect or growth inhibition) at 200 ppm (Spodoptera littoralis)

C[C@H](NC(=O)c1cc(Cl)cc(S(C)(=O)=O)c1)c1ncnn1-c1ccc(=O)n(C)n1 [P9, 3-chloro-N-[(1S)-1-[2-(1-methyl-6-oxo-pyridazin-3-yl)-1,2,4-triazol-3-yl]ethyl]-5-methylsulfonyl-benzamide]
≥ 80%: percent effect (mortality or growth inhibition) at 200 ppm (Euschistus heros) | mortality at 200 ppm [3] | mortality at 200 ppm (Myzus persicae [1]) | mortality at 12 ppm (Myzus persicae [2])

C[C@H](NC(=O)c1cc(Cl)cc(I)c1)c1ncnn1-c1ccc(=O)n(C)n1 [P28, 3-chloro-5-iodo-N-[(1S)-1-[2-(1-methyl-6-oxo-pyridazin-3-yl)-1,2,4-triazol-3-yl]ethyl]benzamide]
≥ 80%: percent control (mortality, anti-feedant effect or growth inhibition) at 200 ppm (Chilo suppressalis) | percent control (mortality or growth inhibition) at 200 ppm (Diabrotica balteata) | percent effect (mortality or growth inhibition) at 200 ppm (Euschistus heros) | mortality at 200 ppm (Myzus persicae [1]) | mortality at 12 ppm (Myzus persicae [2]) | percent control (mortality or growth inhibition) at 200 ppm (Plutella xylostella) | percent control (mortality, anti-feedant effect or growth inhibition) at 200 ppm (Spodoptera littoralis)

CC(NC(=O)c1cc(C(F)(F)F)nc(C2(C#N)CC2)c1)c1nccnc1-c1ccc(=O)n(C)n1 (stereo not shown) [P32, 2-(1-cyanocyclopropyl)-N-[1-[3-(1-methyl-6-oxo-pyridazin-3-yl)pyrazin-2-yl]ethyl]-6-(trifluoromethyl)pyridine-4-carboxamide]
≥ 80%: percent control (mortality, anti-feedant effect or growth inhibition) at 200 ppm (Chilo suppressalis) | percent control (mortality or growth inhibition) at 200 ppm (Diabrotica balteata) | percent effect (mortality or growth inhibition) at 200 ppm (Euschistus heros) | mortality at 200 ppm (Myzus persicae [1]) | mortality at 12 ppm (Myzus persicae [2]) | percent control (mortality or growth inhibition) at 200 ppm (Plutella xylostella) | percent control (mortality, anti-feedant effect or growth inhibition) at 200 ppm (Spodoptera littoralis)

C[C@H](NC(=O)c1cc(C(F)(F)F)cc(C(C)(C)C#N)c1)c1ncnn1-c1ccc(=O)n(C)n1 [P43, 3-(1-cyano-1-methyl-ethyl)-N-[(1S)-1-[2-(1-methyl-6-oxo-pyridazin-3-yl)-1,2,4-triazol-3-yl]ethyl]-5-(trifluoromethyl)benzamide]
≥ 80%: percent control (mortality, anti-feedant effect or growth inhibition) at 200 ppm (Chilo suppressalis) | percent control (mortality or growth inhibition) at 200 ppm (Diabrotica balteata) | percent effect (mortality or growth inhibition) at 200 ppm (Euschistus heros) | mortality at 200 ppm (Myzus persicae [1]) | mortality at 12 ppm (Myzus persicae [2]) | percent control (mortality or growth inhibition) at 200 ppm (Plutella xylostella) | percent control (mortality, anti-feedant effect or growth inhibition) at 200 ppm (Spodoptera littoralis)
